Test results as given in patent US20250161332A1, “NON-PSYCHOACTIVE MULTI-CANNABINOID AND POLYSACCHARIDE AND POLYSACCHAROPEPTIDE-BASED THERAPEUTIC COMPOSITIONS AND METHODS OF THEIR ADMINISTRATIO” (Pebble Global Holdings, priority 2021, published 2025).

Columns and labels:
[1] = test system: animal models of epilepsy; details: in vivo; cited from earlier work
[2] = cited from earlier work; for circulating metabolite as percent of the parent based on plasma AUC of cannabidiol: in vivo
[3] = treatment regimens, cited from earlier work; for nausea and gastrointestinal (GI) AEs, occurrence: single agents
A2780 and OVCAR5 = assay: Reverse Phase Protein Array (RPPA) and Ingenuity Pathway Analysis; format: cell-based; details: 5 μM (CBD content)
Description: Example 11. Protein Expression Level Effects. […] Results.

[4] = test system: ovarian cancer cell lines; assay: Cell viability assay (tetrazolium to formazan), 10 ovarian cancer cell lines; format: cell-based; details: 72 h
Description: Synergistic relationships for combinations of terpenoids and cannabinoids have been reported Russo, E. B. and J. Marcu, Chapter Three—Cannabis Pharmacology: The Usual Suspects and a Few Promising Leads, in Advances in Pharmacology, D. Kendall and S. P. H. Alexander, Editors. 2017, Academic Press. p. 67-134, the entire disclosure of which is incorporated herein by reference This observed synergy was strongly dependent on the ratio and origin of terpenoids, as shown in triple negative breast cancer models. In addition, many cannabinoids and terpenoids are immune suppressors as reported for alpha-bisabolol, which activates TGF to promote the differentiation of macrophages into the M2 phenotype (tumor promoting) and regulatory T cells. Ovarian cancer cell lines tested included A2780ip2, A2780CP20, HeyA8, HeyA8-MDR, SKOV3 and OVCAR3 and were maintained in RPMI 1640 supplemented with 10-15% fetal bovine serum and 0.1% gentamicin sulfate (available from Gemini Bioproducts, Calabasas, CA, USA). OVCAR5 cells were maintained in Dulbecco's modified Eagle's medium with 10% fetal bovine serum and 0.1% gentamicin sulfate. 1D8 murine ovarian cancer cells were maintained in Dulbecco modified
Eagle medium containing 10% fetal bovine serum (FBS), lx insulin-transferrin-selenium (available from Thermo Fisher Scientific, Waltham, MA), and 0.5% gentamicin. All above cells were cultured at 37° C. using a 5% C02 incubator. All in vitro experiments were performed with 70-80% confluent cultures and a passage number […].
Example 7. Cell viability assays. Cell viability assays were performed by testing ovarian cancer cells' metabolic ability to reduce the tetrazolium salt 3-(4,5-dimethylthiazol-2-yl)-5-(3-carboxymethoxyphenyl)-2-(4-sulfophenyl)-2H-tetrazolium (inner salt) to a formazan. […] Activities for each reagent were determined using Hill plot analyses (Graphpad Prism 8 software) to assess the half maximal effect—ICso. Results. […]

GPR55 = GPR55 (Homo sapiens, UniProt Q9Y2T6); details: cited from earlier work
CB2 = CB2 (Homo sapiens, UniProt P34972); details: cited from earlier work
OVCAR5 Luc = assay: In vivo dose finding and efficacy study, orthotopic xenograft model for ovarian cancer; set-up: species or system nude mice
Experimental: Example 10. In vivo dose finding and efficacy study. The purpose of this study was to determine the safety and efficacy of single agent CBD and annelix in an orthotopic xenograft model for ovarian cancer. This mouse model resembles the disease of ovarian cancer in humans with development of tumor nodules in the abdominal cavity and development of ascites. Method. Luciferase transfected human ovarian tumor cells, OVCAR5 Luc (1.0 million) were injected into the peritoneal cavity of nude mice, intra peritoneally (i.p.). On day 8 after tumor cell injection IVIS® optical imaging was performed to confirm tumor establishment. […] The study was an approved protocol of the MD Anderson Cancer Center (MDACC) Institutional Animal Care and Use Committee (IACUC). […] Mice were sacrificed on day 32 (post inoculation of cells) and tumors were harvested. Body weights, tumor weight, number of tumor nodules and ascites volumes were recorded. Results: The body weights, tumor weights, tumor nodules and ascites volumes for each of the treatment groups are shown in FIG. 4. […] Control mice received corn oil injections. Body weights were not affected by either the dose of annelix (aq.), nor by the dose of CBD in this study.

5 HT1A receptor = biological target: T1, 5 HT1A receptor (Homo sapiens, UniProt P08908); details: cited from earlier work
T1 sequence (P08908 1-422): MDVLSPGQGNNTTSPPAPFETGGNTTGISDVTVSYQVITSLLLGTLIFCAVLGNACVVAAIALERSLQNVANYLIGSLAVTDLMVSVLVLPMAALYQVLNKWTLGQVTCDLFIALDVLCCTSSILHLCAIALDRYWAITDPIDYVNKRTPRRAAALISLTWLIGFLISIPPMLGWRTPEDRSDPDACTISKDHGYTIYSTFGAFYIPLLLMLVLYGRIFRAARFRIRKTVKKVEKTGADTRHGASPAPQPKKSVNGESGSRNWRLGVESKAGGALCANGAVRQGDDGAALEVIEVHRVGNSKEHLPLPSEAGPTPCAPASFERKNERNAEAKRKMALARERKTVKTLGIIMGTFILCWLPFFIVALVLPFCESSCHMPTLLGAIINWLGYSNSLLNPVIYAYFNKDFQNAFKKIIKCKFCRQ

[5] = test system: leukemia (P388), liver cancer (HepG2), skin melanoma (B16-F10), and myelogenous leukemia (K562); details: range over the four cell lines; cited from earlier work
B16-F10 melanoma = details: cited from earlier work
ALL = details: cited from earlier work
normal endothelial cells = details: cited from earlier work

GPR55, sequence (Q9Y2T6 whole entry, species assumed): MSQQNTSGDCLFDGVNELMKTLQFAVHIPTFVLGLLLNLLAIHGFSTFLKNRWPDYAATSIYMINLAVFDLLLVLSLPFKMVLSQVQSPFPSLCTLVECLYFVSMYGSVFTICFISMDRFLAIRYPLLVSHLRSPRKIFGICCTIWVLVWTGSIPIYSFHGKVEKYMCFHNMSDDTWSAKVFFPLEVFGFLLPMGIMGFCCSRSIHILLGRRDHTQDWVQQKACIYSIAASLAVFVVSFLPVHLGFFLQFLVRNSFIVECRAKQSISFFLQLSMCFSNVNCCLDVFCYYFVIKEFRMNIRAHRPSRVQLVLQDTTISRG
CB2, sequence (P34972 whole entry, species assumed): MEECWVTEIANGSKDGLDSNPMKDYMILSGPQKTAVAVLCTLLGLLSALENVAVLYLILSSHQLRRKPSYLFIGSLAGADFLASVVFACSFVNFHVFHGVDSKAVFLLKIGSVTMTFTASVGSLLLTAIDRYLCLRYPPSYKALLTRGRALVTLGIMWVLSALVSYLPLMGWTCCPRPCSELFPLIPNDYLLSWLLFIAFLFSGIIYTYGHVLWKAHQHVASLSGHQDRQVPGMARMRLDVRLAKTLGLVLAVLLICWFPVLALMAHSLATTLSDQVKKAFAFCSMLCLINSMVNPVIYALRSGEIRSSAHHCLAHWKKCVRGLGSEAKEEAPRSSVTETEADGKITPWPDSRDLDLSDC

In the case of C=C(C)[C@@H]1CCC(CO)=C[C@H]1c1c(O)cc(CCCCC)cc1O [7-OH-CBD, 7-hydroxy-cannabidiol], the activity [1] is listed as “equipotent and active” and the “circulating metabolite as percent of the parent based on plasma AUC of cannabidiol” value [2] is listed as “approximately 38%”.
For Nc1ccn([C@@H]2O[C@H](CO)[C@@H](O)C2(F)F)c(=O)n1 [gemcitabine], the “nausea and gastrointestinal (GI) AEs, occurrence” value [3] is listed as 69%.
With C=C(C)[C@@H]1CCC(C)=C[C@H]1c1c(O)cc(CCCCC)cc1O [CBD, cannabidiol] the “most affected pathways versus DMSO” value (A2780 and OVCAR5; 8 and 24 hours) was “HER-2 signaling in breast cancer, PI3/AKT signaling, molecular mechanisms of cancer, systemic lupus erythematosus in B cell signaling pathway, and autophagy”, the most upstream regulators (A2780 and OVCAR5; 8 and 24 hours) was “p53, AKT, E2F1, beta-estradiol and ERBB2” and the “cell cycle checkpoint and DNA damage repair pathway proteins (Weel, CDC25, Rad51, chkl, ATR, ATM and p53)” value (A2780 and OVCAR5; compared to DMSO control) was “very few proteins, including ATR and CDC25, were downregulated”. The IC50 [4] was 7.8 to 14.7 µM, the “mode of action at GPR55” value (GPR55) was “antagonist” and the “affinity for CB2 receptor” value (CB2) was “little affinity”. The “tumor burden compared to control group” value (OVCAR5 Luc; 50 mg/kg i.p.) was “reduction in tumor burden”, the ascites volume (OVCAR5 Luc; 50 mg/kg i.p., statistical significance not reached) was “controlled” and the body weights (OVCAR5 Luc; 1, 10 and 50 mg/kg based on CBD content, i.p., 3 times per week until day 32) was “not affected”. For the same compound, the “tolerability / adverse effects” value (OVCAR5 Luc; 1, 10 and 50 mg/kg, i.p., 3 times per week until day 32) was “well tolerated and did not cause any adverse effects”, the activity [1] was “equipotent and active” and the enzymes primarily metabolizing ([2]; liver and gut) was “CYP2C19, CYP3A4, and UGT1A7, UGT1A9, and UGT2B7”. The “mode of action at 5 HT1A receptor” value (5 HT1A receptor) was “agonist”.
In the case of CC1=CC=C(C(C)C)CC1 [alpha-terpinene, 1-Isopropyl-4-methyl-1,3-cyclohexadiene], the IC50 [5] is listed as 60 to 180 µM.
In the case of CC[C@@]1(O)C(=O)OCc2c1cc1n(c2=O)Cc2cc3c(CN(C)C)c(O)ccc3nc2-1 [topotecan], the “nausea and gastrointestinal (GI) AEs, occurrence” value [3] is given as 63%.
In the case of C=C1C2CCC(C2)C1(C)C (stereo not drawn) [camphene, 2,2-Dimethyl-3-methyllidenebicyclo[2.2.1]heptane], the IC50 (B16-F10 melanoma) is listed as 529 µM.
In the case of N.N.[Cl][Pt][Cl] [cisplatinum], the “Neuropathy and neurological symptoms, occurrence” value [3] is given as 94%.
Compound CCCCCc1cc(O)c2c(c1)OC(C)(CCC=C(C)C)C=C2 (stereo not drawn) [CBC, cannabichromene] has an IC50 [4] of 25.9 to 49.9 µM.
In the case of C=C(C)[C@@H]1CCC(C(=O)O)=C[C@H]1c1c(O)cc(CCCCC)cc1O [7-COOH-CBD, 7-carboxy-cannabidiol], the activity [1] is given as “inactive” and the “circulating metabolite level relative to parent” value ([2]; higher than the parent cannabidiol) is given as “approximately 40 fold”.
In the case of C=C(C)[C@@H]1C[C@H](O)C(C)=C[C@H]1c1c(O)cc(CCCCC)cc1O [6-OH-CBD, 6-hydroxy-cannabidiol], the “circulating metabolite as percent of the parent based on plasma AUC of cannabidiol” value [2] is listed as < 10%.
CCCCCc1cc(O)c(C/C=C(\C)CCC=C(C)C)c(O)c1 [CBG, cannabigerol] showed an IC50 [4] of 17 to 35 µM.
For CC(C)=CCC[C@](C)(O)[C@@H]1CC=C(C)CC1 [alpha-bisabolol, (2S)-6-Methyl-2-[(1S)-4-methylcyclohex-3-en-1-yl]hept-5-en-2-ol], the IC50 (ALL) is listed as 73 µM and the IC50 (normal endothelial cells) is listed as 5 µM.
